Source: US5620864A, “Acceptor for fucosyl transferase” (Health Research, Inc., priority 1992, dated 1997)
Values joined by “and” are separate entries in the source; they are usually repeats but may differ in a detail not shown here. Equal values may be shown once.

Columns and labels:
[1] = system: serum α1,3-L-fucosyltransferase; test: Acceptor ability in presence of the competitive substrate (3'-sulfo LacNAc vs 2'-methyl LacNAc), ovarian cancer sera; assay type: biochemical, human; conditions: for Km: serum enzyme
Protocol: (§1) An incubation mixture contained 50 mM HEPES-NaOH, pH 7.5, 5 mM MnC12, 7 mM ATP, 3 mM NaN3, the acceptor 0.3 mM (for serum enzyme) or 3.0 mM (for tumor enzyme), 0.125 μCi of GDP-[U-^14 C] Fuc (Sp. Act. 216 mCi/mmol) and enzyme in a total volume of 0.10 ml; the control incubation mixture had everything except the acceptor. At the end of incubation at 37° C. for 18 h, the mixture was diluted with 1 ml water and passed through Dowex-1-C1 column (1 ml in a Pasteur pipet). The column was washed twice with 1 ml water; the breakthrough and wash, which contained the [^14 C] fucosylated neutral acceptor, were collected together in a scintillation vial and counted for radioactivity using the scintillation coctail 3a70 (Research Products International, Mount Prospects, Ill.) and Beckman LS9000. The Dowex column was then eluted successively with 3 ml each of 0.1M and 0.2M NaCl; these eluates which contained the [^14 C] fucosylated sulfated acceptors, were counted for radioactivity as before. Corrections were made by subtracting the radioactivity in the water and NaCl eluates of the control incubation mixture from the corresponding test fractions. The duplicate runs of samples gave almost identical values, the difference being <5%.
(§2) The superiority of 3'-sulfo LacNAc over 2'-methyl LacNAc as the substrate for measuring serum α1,3 fucosyltransferase was tested in three different ways. First, the incubation mixtures in duplicate contained 0.3 mM 3'-sulfo LacNAc and varying amounts of 2'-methyl LacNAc (0 to 7.5 mM); the incorporation of [^14 C] fucose by the serum enzyme into both substrates was measured (Table III). The incorporation of [^14 C] fucose into 3'-sulfo LacNAc decreased and into 2'-methyl LacNAc increased with the increase in the concentration of the latter. […] 25 fold less than 2' methyl LacNAc. Secondly, the incubation mixtures in duplicate contained 3.0 mM 2'-methyl LacNAc and varying amounts of 3'-sulfo LacNAc (0 to 0.75 mM); the incorporation of [^14 C] fucose by the same serum enzyme into both substrates was measured (Table III). The [^14 C] fucose incorporation into 2'-methyl LacNAc decreased and into 3'-sulfo LacNAc increased by increasing the concentration of the latter. […] Thirdly, both 2'-methyl LacNAc and 3'-sulfo LacNAc at 0.3 mM concentration were incubated separately in duplicates with six ovarian cancer sera and one normal serum; the incorporation of [^14 C] fucose into these acceptors were quantitated (Table IV). The [^14 C] fucose incorporation into 3'-sulfo LacNAc was consistently higher (4-5 fold) than that into 2'-methyl LacNAc, including the assay of the normal serum. […] These values indicate that 3'-sulfo LacNAc is a very high affinity acceptor for α1,3 fucosyltransferase. The [^14 C] fucosylated product arising from 3'-sulfo LacNAc has been tentatively identified as 3'-sulfo, 3-fucosyl LacNAc by comparing strictly its mobility on paper with the synthetic authentic compound 3'-sulfo, 3-fucosyl LacNAc (see FIG. 5).

[2] = target: T1, serum α1,3-L-fucosyltransferase (Homo sapiens, UniProt P51993); test: Detection of serum α1,3-L-fucosyltransferase in six ovarian cancer sera and one normal serum; assay type: biochemical; conditions: for percentage of the ratio between the CPM obtained for cancer serum and normal serum: acceptor 0.30 mM; for α1,3 fucosyltransferase activity of the cancer sera as compared to the normal serum: range over six ovarian cancer sera, acceptor 0.3 mM
T1 construct: Sera were collected from healthy females and ovarian cancer patients; from tissue; host or cells: blood serum of ovarian cancer patients and healthy females
T1 sequence (P51993 35-359 limits assumed): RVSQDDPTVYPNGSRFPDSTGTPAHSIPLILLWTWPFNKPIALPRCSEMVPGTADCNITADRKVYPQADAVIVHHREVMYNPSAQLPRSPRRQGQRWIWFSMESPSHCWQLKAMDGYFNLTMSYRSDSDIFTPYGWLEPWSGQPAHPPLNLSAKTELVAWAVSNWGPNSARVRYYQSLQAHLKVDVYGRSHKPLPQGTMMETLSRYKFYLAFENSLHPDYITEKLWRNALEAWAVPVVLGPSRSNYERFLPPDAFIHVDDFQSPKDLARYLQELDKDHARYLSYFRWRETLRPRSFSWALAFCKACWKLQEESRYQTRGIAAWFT
Protocol: (§3) Sera were collected from healthy females and ovarian cancer patients admitted to Roswell Park Cancer Institute in Buffalo, N.Y., USA. Ovarian tumor tissues were obtained during surgical procedures from patients with ovarian cancer. Both sera and tissues were stored frozen at -70° C. until use.
as §1, §2

[3] = target: T1, serum α1,3-L-fucosyltransferase; test: Assay of α1,3-fucosyltransferase with various synthetic acceptors, ovarian cancer sera as enzyme source; assay type: biochemical; conditions: for [14C] Fucose Incorporated (CPM): acceptor 0.3 mM, 37° C. 18 h
Protocol: as §3, §1
The activity of serum α1,3-fucosyltransferase was measured with the specific substrate 2'-methyl LacNAc and compared with the ability of several other synthetic substrates to act as an acceptor of fucose.
When the structure of the acceptor 2'-methyl LacNAc was modified by replacing the methyl group with sulfate group in C-2', 3', 6' or 6 position and tested their ability to act as the acceptor of fucose, the following novel findings emerged. […] The β-benzyl glycoside of 3' sulfo LacNAc was quite active (168.4%) but less than the parent compound.

[4] = 2'-Methyl LacNAc 3.0 mM + 3'-Sulfo LacNAc 0 mM
[5] = 2'-Methyl LacNAc 3.0 mM + 3'-Sulfo LacNAc 0.15 mM
[6] = 2'-Methyl LacNAc 3.0 mM + 3'-Sulfo LacNAc 0.30 mM
[7] = 2'-Methyl LacNAc 3.0 mM + 3'-Sulfo LacNAc 0.45 mM
[8] = 2'-Methyl LacNAc 3.0 mM + 3'-Sulfo LacNAc 0.65 mM
[9] = 2'-Methyl LacNAc 3.0 mM + 3'-Sulfo LacNAc 0.75 mM
[10] = 3'-Sulfo LacNAc 0.3 mM + 2'-Methyl LacNAc 0 mM
[11] = 3'-Sulfo LacNAc 0.3 mM + 2'-Methyl LacNAc 1.5 mM
[12] = 3'-Sulfo LacNAc 0.3 mM + 2'-Methyl LacNAc 3.0 mM
[13] = 3'-Sulfo LacNAc 0.3 mM + 2'-Methyl LacNAc 4.5 mM
[14] = 3'-Sulfo LacNAc 0.3 mM + 2'-Methyl LacNAc 6.0 mM
[15] = 3'-Sulfo LacNAc 0.3 mM + 2'-Methyl LacNAc 7.5 mM

SMILES: CO[C@H]1[C@H](O[C@H]2[C@H](O)[C@@H](NC(C)=O)C(O)O[C@@H]2CO)O[C@H](CO)[C@H](O)[C@@H]1O (some centres unmarked) [2'-methyl LacNAc]
- Incorporation of [14C] Fucose (CPM) [1, 4]: 3664 CPM
- Incorporation of [14C] Fucose (CPM) [1, 5]: 2581 CPM
- Incorporation of [14C] Fucose (CPM) [1, 6]: 2191 CPM
- Incorporation of [14C] Fucose (CPM) [1, 7]: 1737 CPM
- Incorporation of [14C] Fucose (CPM) [1, 8]: 1184 CPM
- Incorporation of [14C] Fucose (CPM) [1, 9]: 1187 CPM
- inhibition of the [14C] fucose incorporation into 3'-sulfo LacNAc ([1]; 2'-methyl LacNAc 7.5 mM, 3'-sulfo LacNAc 0.3 mM): 43%
- Km ([1]; 2'-methyl LacNAc in presence of 0.3 mM 3'-sulfo LacNAc): 6.67 mM
- Incorporation of [14C] Fucose (CPM) [1, 10]: 157 CPM
- Incorporation of [14C] Fucose (CPM) [1, 11]: 1143 CPM
- Incorporation of [14C] Fucose (CPM) [1, 12]: 1614 CPM
- Incorporation of [14C] Fucose (CPM) [1, 13]: 1973 CPM
- Incorporation of [14C] Fucose (CPM) [1, 14]: 2698 CPM
- Incorporation of [14C] Fucose (CPM) [1, 15]: 2788 CPM
- inhibition by 2'-methyl LacNAc of incorporation into 3'-sulfo LacNAc ([1]; 3'-sulfo LacNAc present at 3.0 mM): no inhibition
- Incorporation of [14C] Fucose (CPM) into the Acceptor (0.30 mM) ([2]; Normal Serum): 397 CPM
- Incorporation of [14C] Fucose (CPM) into the Acceptor (0.30 mM) ([2]; Ovarian Cancer Serum 1): 1325 CPM
- percentage of the ratio between the CPM obtained for cancer serum and normal serum ([2]; Ovarian Cancer Serum 1): 334%
- Incorporation of [14C] Fucose (CPM) into the Acceptor (0.30 mM) ([2]; Ovarian Cancer Serum 2): 1724 CPM
- percentage of the ratio between the CPM obtained for cancer serum and normal serum ([2]; Ovarian Cancer Serum 2): 434%
- Incorporation of [14C] Fucose (CPM) into the Acceptor (0.30 mM) ([2]; Ovarian Cancer Serum 3): 1359 CPM
- percentage of the ratio between the CPM obtained for cancer serum and normal serum ([2]; Ovarian Cancer Serum 3): 342%
- Incorporation of [14C] Fucose (CPM) into the Acceptor (0.30 mM) ([2]; Ovarian Cancer Serum 4): 1347 CPM
- percentage of the ratio between the CPM obtained for cancer serum and normal serum ([2]; Ovarian Cancer Serum 4): 339%
- Incorporation of [14C] Fucose (CPM) into the Acceptor (0.30 mM) ([2]; Ovarian Cancer Serum 5): 699 CPM
- percentage of the ratio between the CPM obtained for cancer serum and normal serum ([2]; Ovarian Cancer Serum 5): 176%
- Incorporation of [14C] Fucose (CPM) into the Acceptor (0.30 mM) ([2]; Ovarian Cancer Serum 6): 975 CPM
- percentage of the ratio between the CPM obtained for cancer serum and normal serum ([2]; Ovarian Cancer Serum 6): 246%
- α1,3 fucosyltransferase activity of the cancer sera as compared to the normal serum [2]: 176%-434%
- [14C] Fucose Incorporated (CPM) [3]: 1730 CPM

SMILES: CC(=O)N[C@H]1C(O)O[C@H](CO)[C@@H](O[C@@H]2O[C@H](CO)[C@H](O)[C@H](OS(=O)(=O)O)[C@H]2O)[C@@H]1O (stereo partly drawn) [3'-Sulfo-LacNAc, SODIUM β-D-GALACTOPYRANOSYL 3-SULFATE-(1→4)-2-ACETAMIDO-2-DEOXY-D-GLUCOPYRANOSE]
- Incorporation of [14C] Fucose (CPM) [1, 4]: 140 CPM
- Incorporation of [14C] Fucose (CPM) [1, 5]: 1294 CPM
- Incorporation of [14C] Fucose (CPM) [1, 6]: 2181 CPM
- Incorporation of [14C] Fucose (CPM) [1, 7]: 2417 CPM
- Incorporation of [14C] Fucose (CPM) [1, 8]: 2373 CPM
- Incorporation of [14C] Fucose (CPM) [1, 9]: 2560 CPM
- Incorporation of [14C] Fucose (CPM) [1, 10]: 2520 CPM
- Incorporation of [14C] Fucose (CPM) [1, 11]: 2132 CPM
- Incorporation of [14C] Fucose (CPM) [1, 12]: 1872 CPM
- Incorporation of [14C] Fucose (CPM) [1, 13]: 1748 CPM
- Incorporation of [14C] Fucose (CPM) [1, 14]: 1712 CPM
- Incorporation of [14C] Fucose (CPM) [1, 15]: 1428 CPM
- inhibition of the [14C] fucose incorporation into 2'-methyl LacNAc ([1]; 3'-Sulfo LacNAc 0.75 mM, 2'-methyl LacNAc 3.0 mM): 68%
- Km ([1]; 3'-sulfo LacNAc in presence of 3.0 mM 2'-methyl LacNAc): 0.12 mM
- Incorporation of [14C] Fucose (CPM) into the Acceptor (0.30 mM) ([2]; Normal Serum): 1543 CPM
- Ratio B/A (CPM into 3'-Sulfo LacNAc / CPM into 2'-Methyl LacNAc) ([2]; Normal Serum): 3.89
- Incorporation of [14C] Fucose (CPM) into the Acceptor (0.30 mM) ([2]; Ovarian Cancer Serum 1): 7310 CPM
- Ratio B/A (CPM into 3'-Sulfo LacNAc / CPM into 2'-Methyl LacNAc) ([2]; Ovarian Cancer Serum 1): 5.52
- percentage of the ratio between the CPM obtained for cancer serum and normal serum ([2]; Ovarian Cancer Serum 1): 474%
- Incorporation of [14C] Fucose (CPM) into the Acceptor (0.30 mM) ([2]; Ovarian Cancer Serum 2): 9816 CPM
- Ratio B/A (CPM into 3'-Sulfo LacNAc / CPM into 2'-Methyl LacNAc) ([2]; Ovarian Cancer Serum 2): 6.69
- percentage of the ratio between the CPM obtained for cancer serum and normal serum ([2]; Ovarian Cancer Serum 2): 636%
- Incorporation of [14C] Fucose (CPM) into the Acceptor (0.30 mM) ([2]; Ovarian Cancer Serum 3): 5261 CPM
- Ratio B/A (CPM into 3'-Sulfo LacNAc / CPM into 2'-Methyl LacNAc) ([2]; Ovarian Cancer Serum 3): 3.87
- percentage of the ratio between the CPM obtained for cancer serum and normal serum ([2]; Ovarian Cancer Serum 3): 341%
- Incorporation of [14C] Fucose (CPM) into the Acceptor (0.30 mM) ([2]; Ovarian Cancer Serum 4): 5480 CPM
- Ratio B/A (CPM into 3'-Sulfo LacNAc / CPM into 2'-Methyl LacNAc) ([2]; Ovarian Cancer Serum 4): 4.06
- percentage of the ratio between the CPM obtained for cancer serum and normal serum ([2]; Ovarian Cancer Serum 4): 355%
- Incorporation of [14C] Fucose (CPM) into the Acceptor (0.30 mM) ([2]; Ovarian Cancer Serum 5): 3088 CPM
- Ratio B/A (CPM into 3'-Sulfo LacNAc / CPM into 2'-Methyl LacNAc) ([2]; Ovarian Cancer Serum 5): 4.42
- percentage of the ratio between the CPM obtained for cancer serum and normal serum ([2]; Ovarian Cancer Serum 5): 200%
- Incorporation of [14C] Fucose (CPM) into the Acceptor (0.30 mM) ([2]; Ovarian Cancer Serum 6): 5483 CPM
- Ratio B/A (CPM into 3'-Sulfo LacNAc / CPM into 2'-Methyl LacNAc) ([2]; Ovarian Cancer Serum 6): 5.62
- percentage of the ratio between the CPM obtained for cancer serum and normal serum ([2]; Ovarian Cancer Serum 6): 355%
- sensitivity / [14C] fucose incorporation relative to 2'-methyl LacNAc ([2]; blood sera, acceptors 0.3 mM): 3 to 5 fold and 4-5 fold
- α1,3 fucosyltransferase activity of the cancer sera as compared to the normal serum [2]: 200%-636%
- Relative Percent ([3]; 2'-methyl LacNAc = 100): 340.8%
- Relative Percent ([3]; 2'-methyl LacNAc = 100, listed as 3'-Sulfo LacNAc): 340.8%
- Relative Percent ([3]; 2'-methyl LacNAc = 100, listed as 3'-sulfo LacNAc): 340.8%
- Relative Percent ([3]; 2'-methyl LacNAc = 100, listed as 3'-sulfo-LacNAc): 340%
- [14C] Fucose Incorporated (CPM) [3]: 5894 CPM
